16 molecules from US20250084079A1, “COMPOSITIONS AND METHODS FOR INHIBITION OF RAS” (TheRas, Inc., priority 2022, published 2025) can be followed below.

Like-named read-outs stand apart in the source and are kept apart here.

In experiment [1] the target is T1, Avi-KRAS G12D (1-169) GppNHp/RAF1 RBD-3xFLAG (52-151) (Homo sapiens, UniProt P01116, G12D).
T1 construct: 100 nM Avi-KRAS G12D (1-169) GppNHp
Briefly: RAS-effector PPI HTRF disruption assay, Raf1-GppNHp-KRAS G12D. It is filed as biochemical. The protocol: (§1) A protein:protein interaction (PPI) Homogeneous Time Resolved Fluorescence (HTRF) assay was used to determine the effectiveness of compounds of the present disclosure in disrupting KRAS protein and effector (RAF1 or PIK3 CA) binding.
(§2) The HTRF assay used the following reagents and proteins: (i) 375 nM Avi-KRAS G12D/Q25A (1-169) GppNHp/3×FLAG-PI3KCA (157-299); (ii) 100 nM Avi-KRAS G12D (1-169) GppNHp/RAF1 RBD-3×FLAG (52-151); (iii) 50 nM Avi-KRAS G12V (1-169) GppNHp/RAF1 RBD-3×FLAG (52-151); (iv) 50 nM Avi-KRAS WT (1-169) GppNHp/RAF1 RBD-3×FLAG (52-151); and (v) 35 nM Avi-PI3K RBD CA-3×FLAG; Assay Buffer: 50 mM Tris pH 7.5, 100 mM NaCl, 5 mM MgCl2, 0.1% BSA, 0.01% Tween, 1 mM TCEP, 10% DMSO; Bead Buffer: 50 mM Tris pH 7.5, 0.01% Tween 20; Assay volume: 20 μL (384 well plate-low volume format); and Compound titration: 100-0.02 μM, 3× dilution series.
(§3) The HTRF assay employed the following protocol:
(§4) Compounds were dispensed in assay plate (384-well, Grenier Bione #784075) using Echo (model 555) with dose response settings: 200 nL final volume, titration from 100 μM as a 10-point dilution series. Protein mix was prepared in assay buffer, and dispensed on plates, 10 μL per well, then incubated for 1 h at room temperature, with 700 rpm shaking. Reagents mix was prepared and dispensed on plates, 10 μL per well, then incubated for 1 h at room temperature, with 700 rpm shaking.
(§5) Plates were analyzed on an Envision plate reader using the following setting: Excitation 320 nm, Bandwidth […]; Emission 615 nm, Bandwidth […], Gain 100%, Flashes 100, Lag 60 μs. Data was reported as percentage of activity, with DMSO as 100%. Data was plotted and analyzed using Prism 8. The SPR Kd, biochemical Raf1-KRAS G12D/G12V/WT-GppNHP and PI3KCA-KRAS G12D/Q25A-GppNHp disruption assay IC50 of selected compounds described herein are shown in Table 4.
(In TR-FRET formats the signal depends on donor and acceptor labels being close together.)

Experiment [2] deals with T2, Avi-KRAS G12D/Q25A (1-169) GppNHp/3xFLAG-PI3KCA (157-299) (Homo sapiens, UniProt P01116, G12D/Q25A).
T2 construct: 375 nM Avi-KRAS G12D/Q25A (1-169) GppNHp
T2 sequence (P01116 1-169 isoform P01116-2 G12D/Q25A): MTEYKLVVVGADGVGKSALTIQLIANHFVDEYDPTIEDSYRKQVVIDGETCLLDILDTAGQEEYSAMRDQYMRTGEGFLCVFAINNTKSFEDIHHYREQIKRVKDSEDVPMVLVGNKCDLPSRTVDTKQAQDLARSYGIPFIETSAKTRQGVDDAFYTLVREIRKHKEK
The experiment can be described thus: RAS-effector PPI HTRF disruption assay, PI3KCA-GppNHp-KRAS G12D/Q25A. It is filed as biochemical. On the procedure:
as §1, §2, §3, §4, §5

The target in experiment [3] is T3, Avi-KRAS WT (1-169) GppNHp/RAF1 RBD-3xFLAG (52-151) (Homo sapiens, UniProt P01116).
T3 construct: 50 nM Avi-KRAS WT (1-169) GppNHp
T3 sequence (P01116 1-169 isoform P01116-2): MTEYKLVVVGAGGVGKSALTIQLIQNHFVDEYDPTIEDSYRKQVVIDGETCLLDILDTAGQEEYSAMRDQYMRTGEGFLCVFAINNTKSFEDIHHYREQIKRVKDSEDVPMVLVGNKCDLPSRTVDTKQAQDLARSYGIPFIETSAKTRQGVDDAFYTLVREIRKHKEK
Briefly: RAS-effector PPI HTRF disruption assay, Raf1-GppNHp-KRAS WT. The class given is biochemical. The protocol:
as §1, §2, §3, §4, §5

Experiment [4] concerns pERK in GP2d cells (KRAS G12D). Briefly: Cell-based pERK HTRF assay in GP2d cell. The settings on record: 60 min incubation. On the procedure:
A pERK assay (Perkin Elmer) was used to determine the effectiveness of compounds in disrupting KRAS G12D protein/effector signaling in cells.
On Day 1, cells (GP2d) were seeded into 96-well plates at 3×10^4 cells/well in 80 μL complete growth media (DMEM, 10% FBS).
On Day 2, cells were treated with compounds at 0.25% DMSO. The source plate was created with compounds diluted in media at 5-fold the final assay concentration. The compounds were run in a 9-point concentration curve starting at 1 μM, with a half-log dilution between concentrations. 20 μL was transferred onto the cell plates (final volume in wells was 100 μL). Plates were harvested after 60 min incubation by aspirating media and adding kit-supplied 1× supplemented lysis buffer to all wells (50 μL per well). Plates were then placed on a plate shaker and incubated at 850 rpm for an additional 30 min.
Antibody mixture solution is prepared by diluting aliquoted d2 and Eu Cryptate antibodies 1:20 in kit supplied detection buffer, mix the diluted antibodies solutions (1:1 v:v). 4 μL of this solution is then added to a 384-well detection plate (Perkin Elmer; 6008230).
Samples were homogenized by pipetting up and down and then transferred (16 μL of cell lysates) from the 96-well cell culture plate to two wells of the HTRF 384-well detection plate containing the antibody solution. Plates were centrifuged (524 g for 1 min) and allowed to incubate between 4 and 24 h at room temperature. Maximum signal is reached after 4 h incubation time and remains stable over a period of 24 hours. Therefore, readings can be made between 4 and 24 h of incubation. Plates were centrifuged again (524 g for Imin), then analyzed on the EnVision plate reader using the following settings: Excitation 320 nm, Bandwidth 75 nm; Emission 615 nm, Bandwidth 85 nm; Gain 100%; Flashes 100; Lag 60 μs.

Experiment [5] deals with T4, Avi-KRAS G12V (1-169) GppNHp/RAF1 RBD-3xFLAG (52-151) (Homo sapiens, UniProt P01116, G12V).
T4 construct: 50 nM Avi-KRAS G12V (1-169) GppNHp
T4 sequence (P01116 1-169 isoform P01116-2 G12V): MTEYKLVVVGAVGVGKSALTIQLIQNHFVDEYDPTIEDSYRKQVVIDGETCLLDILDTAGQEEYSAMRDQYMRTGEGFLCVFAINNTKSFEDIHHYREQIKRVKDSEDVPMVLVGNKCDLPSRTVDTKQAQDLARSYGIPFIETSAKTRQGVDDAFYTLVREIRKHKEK
The experiment can be described thus: RAS-effector PPI HTRF disruption assay, Raf1-GppNHp-KRAS G12V. It is filed as biochemical. The protocol:
as §1, §2, §3, §4, §5

T1 sequence (P01116 1-169 isoform P01116-2 G12D): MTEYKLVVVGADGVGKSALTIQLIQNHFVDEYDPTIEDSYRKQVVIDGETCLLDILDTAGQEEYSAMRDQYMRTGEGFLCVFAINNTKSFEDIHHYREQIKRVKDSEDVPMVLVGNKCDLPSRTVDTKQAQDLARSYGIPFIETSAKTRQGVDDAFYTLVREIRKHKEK

`C[C@@H]1C[C@H](Oc2nc(OC[C@@]34CCCN3C[C@H](F)C4)nc3c(F)c(-c4ccc(F)c5sc(N)c(C#N)c45)c(Cl)cc23)CN1` (atropisomer, axis not shown) [Compound 60]: the IC50 in experiment [1] was 100 to 1000 nM; in experiment [2] it was 100 to 1000 nM; in experiment [3], 100 to 1000 nM; in experiment [4] (read-out: pERK-Gp2D-1 hr), ≤ 100 nM; in experiment [5] it was 100 to 1000 nM.

As for `C[C@@H]1C[C@H](Oc2nc(OC[C@@]34CCCN3C[C@H](F)C4)nc3c(F)c(-c4ccc(F)c5sc(N)c(C#N)c45)c(Cl)cc23)CN1` (atropisomer, axis not shown) [Compound 61], the IC50 in experiment [1] was > 10000 nM; in experiment [2] it was > 10000 nM; in experiment [3] it was > 10000 nM; in experiment [4] (read-out: pERK-Gp2D-1 hr), > 1000 nM; in experiment [5], > 10000 nM.

For `N#Cc1c(N)sc2c(F)ccc(-c3c(Cl)cc4c(O[C@@H]5CNC[C@H]5F)nc(OC[C@@]56CCCN5C[C@H](F)C6)nc4c3F)c12` (atropisomer, axis not shown) [Compound 64], the IC50 in experiment [1] was > 10000 nM; in experiment [2] it was > 10000 nM; in experiment [3], > 10000 nM; in experiment [4] (GP2d, 1 h) it was > 1000 nM; in experiment [5] it was > 10000 nM.

Regarding `N#Cc1c(N)sc2c(F)ccc(-c3c(Cl)cc4c(O[C@@H]5CN[C@@H](CO)C5)nc(OC[C@@]56CCCN5C[C@H](F)C6)nc4c3F)c12` (atropisomer, axis not shown) [Compound 68], the IC50 in experiment [1] was > 10000 nM; in experiment [2], > 10000 nM; in experiment [3], > 10000 nM; in experiment [4] (read-out: pERK-Gp2D-1 hr), > 1000 nM; in experiment [5], > 10000 nM.

In the case of `N#Cc1c(N)sc2c(F)ccc(-c3c(Cl)cc4c(O[C@@H]5CN[C@@H](CO)C5)nc(OC[C@@]56CCCN5C[C@H](F)C6)nc4c3F)c12` (atropisomer, axis not shown) [Compound 69], the IC50 in experiment [1] is ≤ 100 nM; in experiment [2], 100 to 1000 nM; in experiment [3], 100 to 1000 nM; in experiment [4] (read-out: pERK-Gp2D-1 hr), 100 to 1000 nM; in experiment [5], 100 to 1000 nM.

Consider `N#Cc1c(N)sc2c(F)ccc(-c3c(Cl)cc4c(O[C@H]5CCN[C@@H]5CO)nc(OC[C@@]56CCCN5C[C@H](F)C6)nc4c3F)c12` (atropisomer, axis not shown) [Compound 75], for which the IC50 is > 10000 nM in experiment [1]; > 10000 nM in experiment [2]; > 10000 nM in experiment [3]; > 1000 nM in experiment [4] (read-out: pERK-Gp2D-1 hr); > 10000 nM in experiment [5].

For the molecule `N#Cc1c(N)sc2c(F)ccc(-c3c(Cl)cc4c(O[C@H]5CCN[C@@H]5CO)nc(OC[C@@]56CCCN5C[C@H](F)C6)nc4c3F)c12` (atropisomer, axis not shown) [Compound 76], the IC50 in experiment [1], in experiment [2], in experiment [3], in experiment [4] (read-out: pERK-Gp2D-1 hr) and in experiment [5] was ≤ 100 nM throughout.

Turning to `C[C@H]1NCC[C@H]1Oc1nc(OC[C@@]23CCCN2C[C@H](F)C3)nc2c(F)c(-c3ccc(F)c4sc(N)c(C#N)c34)c(C(F)(F)F)cc12` (single isomer, unassigned) [Compound 73], the IC50 in experiment [1], in experiment [2], in experiment [3], in experiment [4] (read-out: pERK-Gp2D-1 hr) and in experiment [5] was ≤ 100 nM in each case.

Regarding `C[C@H]1NCC[C@H]1Oc1nc(OC[C@@]23CCCN2C[C@H](F)C3)nc2c(F)c(-c3ccc(F)c4sc(N)c(C#N)c34)c(C(F)(F)F)cc12` (single isomer, unassigned) [Compound 74], the IC50 in experiment [1] is > 10000 nM; in experiment [2], > 10000 nM; in experiment [3] it was > 10000 nM; in experiment [4] (read-out: pERK-Gp2D-1 hr), > 1000 nM; in experiment [5], > 10000 nM.

Turning to `C[C@H]1CNCC1Oc1nc(OC[C@@]23CCCN2C[C@H](F)C3)nc2c(F)c(-c3ccc(F)c4scnc34)c(C(F)(F)F)cc12` (some centres unmarked) [Compound 12], the IC50 was > 10000 nM in experiment [1]; > 10000 nM in experiment [2]; > 10000 nM in experiment [3]; > 1000 nM in experiment [4] (GP2d, 1 h); > 10000 nM in experiment [5].

Take `Nc1nc2c(-c3c(C(F)(F)F)cc4c(O[C@H]5CCNC5)nc(OC[C@@]56CCCN5C[C@H](F)C6)nc4c3F)ccc(F)c2s1` [Compound 13]: the IC50 in experiment [1] was 100 to 1000 nM; in experiment [2], 1000 to 10000 nM; in experiment [3] it was 100 to 1000 nM; in experiment [4] (GP2d, 1 h), ≤ 100 nM; in experiment [5], 1000 to 10000 nM.

In the case of `C[C@@H]1CNCC1Oc1nc(OC[C@@]23CCCN2C[C@H](F)C3)nc2c(F)c(-c3ccc(F)c4scnc34)c(C(F)(F)F)cc12` (some centres unmarked) [Compound 14], the IC50 was > 10000 nM in experiment [1]; > 10000 nM in experiment [2]; > 10000 nM in experiment [3]; > 1000 nM in experiment [4] (GP2d, 1 h); > 10000 nM in experiment [5].

As to `C[C@@H]1CNCC1Oc1nc(OC[C@@]23CCCN2C[C@H](F)C3)nc2c(F)c(-c3ccc(F)c4sc(N)nc34)c(C(F)(F)F)cc12` (some centres unmarked) [Compound 15], the IC50 in experiment [1] lay in the range of 100 to 1000 nM; in experiment [2] it was 1000 to 10000 nM; in experiment [3], 1000 to 10000 nM; in experiment [4] (GP2d, 1 h) it was 100 to 1000 nM; in experiment [5], 1000 to 10000 nM.

Regarding `C[C@@H]1CNCC1Oc1nc(OC[C@@]23CCCN2C[C@H](F)C3)nc2c(F)c(-c3ccc(F)c4sc(N)nc34)c(C(F)(F)F)cc12` (some centres unmarked) [Compound 16], the IC50 in experiment [1] is 1000 to 10000 nM; in experiment [2], 1000 to 10000 nM; in experiment [3] it was 1000 to 10000 nM; in experiment [4] (read-out: pERK-Gp2D-1 hr) it was 100 to 1000 nM; in experiment [5] it was 1000 to 10000 nM.

In the case of `C[C@H]1NCC[C@H]1Oc1nc(OC[C@@]23CCCN2C[C@H](F)C3)nc2c(F)c(-c3ccc(F)c4scnc34)c(C(F)(F)F)cc12` [Compound 23], the IC50 in experiment [1] is > 10000 nM; in experiment [2] it was > 10000 nM; in experiment [3], > 10000 nM; in experiment [4] (GP2d, 1 h), > 1000 nM; in experiment [5] it was > 10000 nM.

As to `Nc1nc2c(-c3ncc4c(O[C@@H]5CCNC5)nc(OC[C@@]56CCCN5C[C@H](F)C6)nc4c3F)ccc(F)c2s1` [Compound 24, 7-fluoro-4-(8-fluoro-2-(((2R,7aS)-2-fluorotetrahydro-1H-pyrrolizin-7a(5H)-yl)methoxy)-4-(((R)-pyrrolidin-3-yl)oxy)pyrido[4,3-d]pyrimidin-7-yl)benzo[d]thiazol-2-amine], the IC50 was > 10000 nM in experiment [1]; > 10000 nM in experiment [2]; > 10000 nM in experiment [3]; > 1000 nM in experiment [4] (GP2d, 1 h); > 10000 nM in experiment [5].
